Experimental data taken from publication PMC10985088, “Synthesis and biological evaluation of echinomycin analogues as potential colon cancer agent” (Scientific Reports, 2024).

Legend:
[1] = parameters: method as in PMID 2737217; details: doses of 60 and 120 μg/m^2; cited from earlier work
SW620 xenograft = SW620 xenograft mouse model; assay type: in vivo; details: i.p. 0.04 and 0.4 µg/mouse daily for 10 days, compared to PBS-injected group
Procedure: Since the metabolic stability and identification of the maximum tolerated dose of 3 were confirmed, the effect of 3 on colon cancer progression in vivo was then investigated (Fig. 7). A xenograft model was generated by injecting a suspension of 2 × 10^6 SW620 cells into the backs of nude mice. The doses of the compounds were 0.04 and 0.4 µg/mouse, which correspond to approximately 1.6 and 16 μg/kg, respectively, according to the results obtained in Fig. S1. A solution of 1, 3, or PBS was injected intraperitoneally into each mouse, and tumor sizes were measured each day. […] Of note is the efficacy of tumor growth inhibition with 3.
Figure 7 In vivo anticancer activity of echinomycin and 3 on the SW620 xenograft mice model. Male BALB/C nude mice were administered by intraperitoneal injection with the vehicle, echinomycin and 3, at dosages of 0.04 and 0.4 µg/mice (n = 10 each group), every day for 10 days (a, b). Average tumor volume (c) was measured. Data are expressed as the mean ± standard error ([…]). *Indicates P < 0.05 by Student's t test. The error bars show the s.d. (n = 10).
Basically, the experiments were performed using methods previously reported. […] The tumor size was calculated by the following formula: Tumor size (mm^2) = (major diameter) × (minor diameter).

[2] = Investigation of maximum tolerated dose (body weight of mice); assay type: in vivo, mouse; details: 14 days
Procedure: Toxicity Body weight change is an indicator of systemic toxicity. Accordingly, the body weights of mice intraperitoneally treated with different doses (0.04 and 0.4 µg/mouse) of either 1 or 3 were measured (Fig. S1). […] A blood hematological examination (including nineteen parameters) was also conducted on these mice on Day 14 (Fig. S2). There were no significant changes in almost any of the parameters in the mice treated with either 1 or 3 at doses of 0.04 or 0.4 µg/mouse.

[3] = Hepatic microsomal stability assay, mouse; assay type: in vitro ADME; details: microsomes, 1 μM, 0.2 mg/mL microsomes, 37 °C, 30 min
Procedure: (§1) Before investigating the in vivo efficacy of 3, its metabolic stability was evaluated by treatment with human or mouse liver microsomes at 37 °C for 30 min, and the remaining analogues were analyzed by LC–MS/MS (Table 3). […] This means that approximately 67% of 3 was unaffected by human liver microsomes.
(§2) Basically, the analysis was performed using methods previously reported. Disappearance of the parent compound over time was measured by using the amount of drug at time zero as a reference. After 5 min of preincubation, 1 mM NADPH (final concentration, the same applies to the following, NADPH( +)) or 0.1 M phosphate buffer (pH 7.4, NADPH(−))) was added to a mixture containing 1 μM of the test compound, 0.2 mg/mL of human or mouse liver microsomes (Sekisui XenoTech LLC (Kansas City, KS)), 1 mM EDTA and 0.1 M phosphate buffer (pH 7.4) and incubated at 37 °C for 30 min by rotation at 60 rpm. An aliquot of 50 μL of the incubation mixture was sampled and added to 250 μL of chilled acetonitrile/internal standard (IS). After centrifuging for 15 min at 3150×g (4 °C), the supernatants were analyzed by LC–MS/MS. Hepatic microsomal stability (mL/min/kg, CLint) was calculated according to the previous report, using 48.8 and 45.4 mg MS protein/g liver and 25.7 and 87.5 g liver/kg body weight as scaling factors for human and mouse, respectively.
(§3) Basically, the analysis was performed using methods previously reported. An LC-MS8060 instrument equipped with a Shimadzu Nexera series LC system (Shimadzu, Kyoto, Japan) was used. All compounds were analyzed in multi-reaction monitoring mode under electron spray ionization conditions. The analytical column used was a […] C18 MGIII (3 μm × 2.0 mmID × 35 mm; OSAKA SODA, Osaka, Japan) at 50 °C. The gradient mobile phase consisted of 0.1% formic acid in water (mobile phase A,) and 0.1% formic acid in acetonitrile (mobile phase B) at a total flow rate of 1 mL/min. The initial mobile phase composition was 10% B, which was held constant for 0.2 min, increased in a linear fashion to 90% B over 1 min, then held constant for 0.8 min, and finally brought back to the initial condition of 10% B over 0.01 min and re-equilibrated for 1 min. The transitions (precursor ion > product ion) of echinomycin, 3 and IS (methyl testosterone) are 1101.45 > 1053.5 (positive), 1083.5 > 523.95 (negative), and 303.1 > 109.1 (positive), respectively.

[4] = Hepatic microsomal stability assay, human; assay type: in vitro ADME; details: microsomes, 1 μM, 0.2 mg/mL microsomes, 37 °C, 30 min
Procedure: as §1, §2, §3

CS[C@H]1SC[C@H]2C(=O)N(C)[C@@H](C(C)C)C(=O)OC[C@@H](NC(=O)c3cnc4ccccc4n3)C(=O)N[C@@H](C)C(=O)N(C)[C@@H]1C(=O)N(C)[C@@H](C(C)C)C(=O)OC[C@@H](NC(=O)c1cnc3ccccc3n1)C(=O)N[C@@H](C)C(=O)N2C [Compound 1, Echinomycin]
toxicity at lower doses in human clinical trials [1]: no observed toxicity | tumor growth (SW620 xenograft): significantly suppressed | body weight ([2]; i.p. 0.04 and 0.4 µg/mouse, daily): did not differ greatly from those of the control | dose up to which no significant toxicity is shown ([2]; i.p. daily, body weight and blood examination): ≥ 0.04 µg/mouse | CLint scaled ([3]; NADPH(+), read-out: Metabolic stability (CLint) Mouse NADPH(+)): < 69.8 mL/min/kg | CLint scaled ([3]; NADPH(−), read-out: Metabolic stability (CLint) Mouse NADPH(−)): < 69.8 mL/min/kg | CLint scaled ([4]; NADPH(+), read-out: Metabolic stability (CLint) Human NADPH(+)): < 22 mL/min/kg | CLint scaled ([4]; NADPH(−), read-out: Metabolic stability (CLint) Human NADPH(−)): < 22 mL/min/kg
